Laboratory results published in patent publication US12570697B2, “Cyclic peptide useful in the treatment of cancer” (Syntherix Limited, priority 2019, dated 2026).
“Also recorded” adds a separate entry of the source.

System: NCI-H460 cells
Assay: viability assay of CLIP cyclised peptides on NCI-H460 cells (Example 3, Table 2)
Format: cell-based, human
Conditions: for % inhibition at 300 μM / IC50: 96 h; for IC50: values in brackets approximate
Description: The following protocol was used: • 1) NCI-H460 cells were grown in Ham's F12 media supplemented with 10% FBS. • 2) Cells were harvested and seeded into 96-well plates at 500 cells per well. • 3) Peptides were diluted 1:2 from DMSO stock solutions to generate a 9-point dose range from a top concentration of 300 μM. Final DMSO concentration was constant at 1% (v/v). • 4) In line with the supplied Nanocin-PRO protocol, diluted peptides were incubated with Nanocin-PRO in media for 20 minutes prior to addition to cells. Nanocin-PRO was used at a final assay concentration of 0.2 μl per well. • 5) Cells were grown in the presence of peptide for 96 hours at 37° C., 5% CO2 in a humidified atmosphere. • 6) After 96 h, Alamar blue 10% (v/v) was added, incubated for a further 4 h and fluorescent product detected using a BMG FLUOstar plate reader. • 7) Media only background readings were subtracted before data was analysed using a 4-parameter logistic equation in GraphPad Prism.
Viability assays of the CLIP cyclised peptides were performed to examine the effect of four HILRa clipped peptides on the viability of NCIH460 cells (up to three isomers for each of the peptides). […] Results for HILRa 16A, 16B, 16C and HILRa 17A, 17B and 17C are depicted in FIG. 2.
Assays were performed in the presence and absence of the peptide transfection reagent Nanocin-PRO.

Molecule | % inhibition at 300 μM (0.2 μl Nanocin-PRO per well) [%] | % inhibition at 300 μM (No Nanocin-PRO) [%] | IC50 (0.2 μl Nanocin-PRO per well) [nM] | cytotoxic activity against NCIH460 cells (in words) (with and without Nanocin-PRO)
COc1ccc2c(C[C@@H]3NC(=O)[C@@H](NC(C)=O)CSCc4cccc(c4)CSC[C@@H](C(N)=O)NC(=O)CC(c4ccc5ccccc5c4)NC(=O)[C@H](CCCNC(=N)N)NC(=O)C4N(CCC4(C)C)C(=O)CN(C)C(=O)[C@H](CCCNC(=N)N)NC3=O)cc(=O)oc2c1 (single isomer, unassigned) [HILRa CL-15-A, Ac-C[Dac]R[Sar][dmPro]R[Nap]C-NH2] | 84.5 | 22.7 |  | 
COc1ccc2c(C[C@@H]3NC(=O)[C@@H](NC(C)=O)CSCc4cccc(c4)CSC[C@@H](C(N)=O)NC(=O)CC(c4ccc5ccccc5c4)NC(=O)[C@H](CCCNC(=N)N)NC(=O)C4N(CCC4(C)C)C(=O)CN(C)C(=O)[C@H](CCCNC(=N)N)NC3=O)cc(=O)oc2c1 (single isomer, unassigned) [HILRa CL-15-B, Ac-C[Dac]R[Sar][dmPro]R[Nap]C-NH2] | 87.5 | 20.2 |  | 
COc1ccc2c(C[C@@H]3NC(=O)[C@@H](NC(C)=O)CSCc4cccc(c4)CSC[C@@H](C(N)=O)NC(=O)CC(c4ccc5ccccc5c4)NC(=O)[C@H](CCCNC(=N)N)NC(=O)C4N(CCC4(C)C)C(=O)CN(C)C(=O)[C@H](CCCNC(=N)N)NC3=O)cc(=O)oc2c1 (single isomer, unassigned) [HILRa CL-15-C, Ac-C[Dac]R[Sar][dmPro]R[Nap]C-NH2] | 88.5 | 23.8 |  | 
COc1ccc2c(C[C@@H]3NC(=O)[C@@H](NC(C)=O)CSCc4cccc(c4)CSC[C@@H](C(N)=O)NC(=O)CC(c4ccc5ccccc5c4)NC(=O)[C@H](CCCNC(=N)N)NC(=O)C4N(CCC4(C)C)C(=O)CN(C)C(=O)[C@H](CCCNC(=N)N)NC3=O)cc(=O)oc2c1 (single isomer, unassigned) [HILRa CL-15-D, Ac-C[Dac]R[Sar][dmPro]R[Nap]C-NH2] | 89.1 | 25.2 |  | 
COc1ccc2c(C[C@@H]3NC(=O)[C@@H](NC(C)=O)CSCc4cccc(c4)CSC[C@@H](C(N)=O)NC(=O)CC(c4ccc5ccccc5c4)NC(=O)[C@H](CCCNC(=N)N)NC(=O)CC(c4ccc5ccccc5c4)NC(=O)CN(C)C(=O)[C@H](CCCNC(=N)N)NC3=O)cc(=O)oc2c1 (single isomer, unassigned) [HILRa CL-17-A, Ac-C[Dac]R[Sar][Nap]R[Nap]C-NH2] | 98.7 | 90.3 |  | 
COc1ccc2c(C[C@@H]3NC(=O)[C@@H](NC(C)=O)CSCc4cccc(c4)CSC[C@@H](C(N)=O)NC(=O)CC(c4ccc5ccccc5c4)NC(=O)[C@H](CCCNC(=N)N)NC(=O)CC(c4ccc5ccccc5c4)NC(=O)CN(C)C(=O)[C@H](CCCNC(=N)N)NC3=O)cc(=O)oc2c1 (single isomer, unassigned) [HILRa CL-17-B, Ac-C[Dac]R[Sar][Nap]R[Nap]C-NH2] | 99.3 | 99.2 | ~2100 | 
COc1ccc2c(C[C@@H]3NC(=O)[C@@H](NC(C)=O)CSCc4cccc(c4)CSC[C@@H](C(N)=O)NC(=O)CC(c4ccc5ccccc5c4)NC(=O)[C@H](CCCNC(=N)N)NC(=O)CC(c4ccc5ccccc5c4)NC(=O)CN(C)C(=O)[C@H](CCCNC(=N)N)NC3=O)cc(=O)oc2c1 (single isomer, unassigned) [HILRa CL-17-C, Ac-C[Dac]R[Sar][Nap]R[Nap]C-NH2] | 99.4 | 99.6 | ~880 | 
Ac-CDacHcaSarNapHcaNapC-NH2 [HILRa CL-16-A] | 0.0 | 9.9 |  | completely removed the cell killing effect; also recorded: low detectable cancer cell-necrotic activity
